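Each compound was tested at five concentrations against cells in 96-well plates for 48 hours. The concentration for 50% growth inhibition is given as GI50. TGI is the concentration that stops growth completely.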
Legend:
Assay in all cases: DTP human tumour cell line panel, 48 h
SK-MEL-2 melanoma = system: SK-MEL-2 melanoma
OVCAR-5 ovarian = system: OVCAR-5 ovarian
COLO 205 colon = system: COLO 205 colon
SK-MEL-28 melanoma = system: SK-MEL-28 melanoma
UO-31 renal = system: UO-31 renal
HOP-62 NSCLC = system: HOP-62 NSCLC
HS 578T breast = system: HS 578T breast
OVCAR-8 ovarian = system: OVCAR-8 ovarian
HCT-15 colon = system: HCT-15 colon
UACC-62 melanoma = system: UACC-62 melanoma
SF-539 CNS = system: SF-539 CNS
RPMI-8226 leukemia = system: RPMI-8226 leukemia
SNB-75 CNS = system: SNB-75 CNS
786-0 renal = system: 786-0 renal
MCF7 breast = system: MCF7 breast
OVCAR-3 ovarian = system: OVCAR-3 ovarian
EKVX NSCLC = system: EKVX NSCLC
A498 renal = system: A498 renal
SNB-19 CNS = system: SNB-19 CNS
PC-3 prostate = system: PC-3 prostate
UACC-257 melanoma = system: UACC-257 melanoma
SW-620 colon = system: SW-620 colon
NCI-H23 lung = system: NCI-H23 lung
DU-145 prostate = system: DU-145 prostate
MOLT-4 leukemia = system: MOLT-4 leukemia
SK-MEL-5 melanoma = system: SK-MEL-5 melanoma
NCI-H460 lung = system: NCI-H460 lung
HT29 colon = system: HT29 colon
LOX IMVI melanoma = system: LOX IMVI melanoma
HOP-92 NSCLC = system: HOP-92 NSCLC
SN12C renal = system: SN12C renal
SF-268 CNS = system: SF-268 CNS
NCI-H226 lung = system: NCI-H226 lung
OVCAR-4 ovarian = system: OVCAR-4 ovarian
SK-OV-3 ovarian = system: SK-OV-3 ovarian
KM12 colon = system: KM12 colon
A549 NSCLC = system: A549 NSCLC
T-47D breast = system: T-47D breast
MDA-MB-435 = system: MDA-MB-435
TK-10 renal = system: TK-10 renal
HCT-116 colon = system: HCT-116 colon
CAKI-1 renal = system: CAKI-1 renal
NCI-H522 lung = system: NCI-H522 lung
BT-549 breast = system: BT-549 breast
HCC-2998 colon = system: HCC-2998 colon
SR leukemia = system: SR leukemia
MALME-3M melanoma = system: MALME-3M melanoma
RXF 393 renal = system: RXF 393 renal
M14 melanoma = system: M14 melanoma
NCI/ADR-RES ovarian = system: NCI/ADR-RES ovarian
CCRF-CEM leukemia = system: CCRF-CEM leukemia
U251 CNS = system: U251 CNS
ACHN renal = system: ACHN renal
SF-295 CNS = system: SF-295 CNS
IGROV1 ovarian = system: IGROV1 ovarian
K-562 leukemia = system: K-562 leukemia
MDA-MB-231 breast = system: MDA-MB-231 breast

O=S(=O)(NC1CC2CCC1C2)c1ccc2c(c1)C(=NO)c1cc(S(=O)(=O)NC3CC4CCC3C4)ccc1-2 (stereo unspecified)
GI50 (SK-MEL-2 melanoma): 66700 nM
TGI (SK-MEL-2 melanoma): > 100000 nM
GI50 (OVCAR-5 ovarian): 453 nM
TGI (OVCAR-5 ovarian): 40500 nM
GI50 (COLO 205 colon): 23300 nM
TGI (COLO 205 colon): > 100000 nM
GI50 (SK-MEL-28 melanoma): 60200 nM
TGI (SK-MEL-28 melanoma): > 100000 nM
GI50 (UO-31 renal): 18.6 nM
TGI (UO-31 renal): 37.6 nM
GI50 (HOP-62 NSCLC): 268 nM
TGI (HOP-62 NSCLC): 4950 nM
GI50 (HS 578T breast): 31600 nM
TGI (HS 578T breast): > 100000 nM
GI50 (OVCAR-8 ovarian): 139 nM
TGI (OVCAR-8 ovarian): 2290 nM
GI50 (HCT-15 colon): 592 nM
TGI (HCT-15 colon): > 100000 nM
GI50 (UACC-62 melanoma): 36000 nM
TGI (UACC-62 melanoma): > 100000 nM
GI50 (SF-539 CNS): 182 nM
TGI (SF-539 CNS): 396 nM
GI50 (RPMI-8226 leukemia): 238 nM
TGI (RPMI-8226 leukemia): > 100000 nM
TGI (SNB-75 CNS): > 100000 nM
GI50 (786-0 renal): 179 nM
TGI (786-0 renal): 326 nM
GI50 (MCF7 breast): 510 nM
TGI (MCF7 breast): > 100000 nM
GI50 (OVCAR-3 ovarian): 598 nM
TGI (OVCAR-3 ovarian): > 100000 nM
GI50 (EKVX NSCLC): 52.1 nM
TGI (EKVX NSCLC): 201 nM
GI50 (A498 renal): > 100000 nM
TGI (A498 renal): > 100000 nM
GI50 (SNB-19 CNS): 28900 nM
TGI (SNB-19 CNS): > 100000 nM
GI50 (PC-3 prostate): 1860 nM
TGI (PC-3 prostate): 18300 nM
GI50 (UACC-257 melanoma): > 100000 nM
TGI (UACC-257 melanoma): > 100000 nM
GI50 (SW-620 colon): 527 nM
TGI (SW-620 colon): 3870 nM
GI50 (NCI-H23 lung): 39.4 nM
TGI (NCI-H23 lung): 182 nM
GI50 (DU-145 prostate): 348 nM
TGI (DU-145 prostate): 8800 nM
GI50 (MOLT-4 leukemia): 13300 nM
TGI (MOLT-4 leukemia): > 100000 nM
GI50 (SK-MEL-5 melanoma): > 100000 nM
TGI (SK-MEL-5 melanoma): > 100000 nM
GI50 (NCI-H460 lung): 437 nM
TGI (NCI-H460 lung): 14200 nM
GI50 (HT29 colon): 220 nM
TGI (HT29 colon): 3010 nM
GI50 (LOX IMVI melanoma): 18.2 nM
TGI (LOX IMVI melanoma): 37.1 nM
GI50 (HOP-92 NSCLC): 152 nM
TGI (HOP-92 NSCLC): 426 nM
GI50 (SN12C renal): 883 nM
TGI (SN12C renal): 25800 nM
GI50 (SF-268 CNS): 2380 nM
TGI (SF-268 CNS): 99500 nM
GI50 (NCI-H226 lung): 22200 nM
TGI (NCI-H226 lung): > 100000 nM
GI50 (OVCAR-4 ovarian): 677 nM
TGI (OVCAR-4 ovarian): 3370 nM
GI50 (SK-OV-3 ovarian): 23200 nM
TGI (SK-OV-3 ovarian): > 86700 nM
GI50 (KM12 colon): 162 nM
GI50 (A549 NSCLC): 1830 nM
TGI (A549 NSCLC): 22400 nM
GI50 (T-47D breast): 1270 nM
TGI (T-47D breast): 5570 nM
GI50 (MDA-MB-435): 1860 nM
TGI (MDA-MB-435): > 100000 nM
GI50 (TK-10 renal): 3100 nM
GI50 (HCT-116 colon): 655 nM
TGI (HCT-116 colon): > 100000 nM
GI50 (CAKI-1 renal): 158 nM
TGI (CAKI-1 renal): 344 nM
GI50 (NCI-H522 lung): 160 nM
TGI (NCI-H522 lung): 1020 nM
GI50 (BT-549 breast): 1920 nM
TGI (BT-549 breast): > 100000 nM
GI50 (HCC-2998 colon): 3750 nM
TGI (HCC-2998 colon): > 100000 nM
GI50 (SR leukemia): 17.9 nM
TGI (SR leukemia): 56.3 nM
GI50 (MALME-3M melanoma): 43.8 nM
TGI (MALME-3M melanoma): 173 nM
GI50 (RXF 393 renal): 292 nM
TGI (RXF 393 renal): 30200 nM
GI50 (M14 melanoma): 4420 nM
TGI (M14 melanoma): > 100000 nM
GI50 (NCI/ADR-RES ovarian): 7000 nM
TGI (NCI/ADR-RES ovarian): > 100000 nM
GI50 (CCRF-CEM leukemia): 25.7 nM
TGI (CCRF-CEM leukemia): 72.6 nM
GI50 (U251 CNS): 371 nM
TGI (U251 CNS): 3670 nM
GI50 (ACHN renal): 74.2 nM
TGI (ACHN renal): 986 nM
GI50 (SF-295 CNS): 2310 nM
TGI (SF-295 CNS): 8910 nM
GI50 (IGROV1 ovarian): 26.2 nM
TGI (IGROV1 ovarian): 132 nM
GI50 (K-562 leukemia): 444 nM
TGI (K-562 leukemia): > 100000 nM
GI50 (MDA-MB-231 breast): 106 nM
TGI (MDA-MB-231 breast): 3130 nM

— PubChem BioAssay (NCI)
